According to the supplement of paper PMC11061612:

Columns and labels:
Assay in all cases: Bliss excess, mean over the matrix (fraction); higher = more synergy
[1] = system: NCI-H1573 (Lung Adenocarcinoma)
Procedure, shortened: (§1)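 Cell lines in DMEM/F12 or RPMI with 10% FBS were plated in 1536-well plates, held 24 hours at 37°C, 5% CO2, then given two-drug dose matrices for 72 hours (DMSO typically 0.2%). Viability was read by CellTiter-Glo 2.0 luminescence and scaled as inhibition from 0 (vehicle wells) to 1 (blank wells). Combination Emax is the second-highest inhibition in the matrix; Bliss excess is observed combination effect minus expected EA + EB − EA·EB, EA and EB being single-agent effects.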

[2] = system: JHH-7 (Hepatocellular Carcinoma)
Procedure, shortened: as §1

[3] = system: SCC-3 (B-Cell Non-Hodgkin's Lymphoma)
Procedure, shortened: as §1

[4] = system: SNU-C1 (Colorectal Carcinoma)
Procedure, shortened: as §1

[5] = system: NCI-H2405 (Lung Adenocarcinoma)
Procedure, shortened: as §1

NB7 (Neuroblastoma) = system: NB7 (Neuroblastoma)
Procedure, shortened: as §1

A704 (Kidney Carcinoma) = system: A704 (Kidney Carcinoma)
Procedure, shortened: as §1

[6] = system: NCI-H322M (Lung Adenocarcinoma)
Procedure, shortened: as §1

[7] = system: LC4-1 (B-Lymphoblastic Leukemia)
Procedure, shortened: as §1

[8] = system: KINGS-1 (Low Grade Glioma)
Procedure, shortened: as §1

[9] = system: NCI-H513 (Other Solid Carcinomas)
Procedure, shortened: as §1

[10] = system: KLE (Endometrial Carcinoma)
Procedure, shortened: as §1

EW-13 (Ewing's Sarcoma) = system: EW-13 (Ewing's Sarcoma)
Procedure, shortened: as §1

[11] = system: KYSE-50 (Esophageal Squamous Cell Carcinoma)
Procedure, shortened: as §1

[12] = system: OCUB-M (Breast Carcinoma)
Procedure, shortened: as §1

[13] = system: PFSK-1 (Other Solid Carcinomas)
Procedure, shortened: as §1

[14] = system: OVISE (Ovarian Carcinoma)
Procedure, shortened: as §1

[15] = system: SCC-9 (Oral Cavity Carcinoma)
Procedure, shortened: as §1

EW-18 (Ewing's Sarcoma) = system: EW-18 (Ewing's Sarcoma)
Procedure, shortened: as §1

[16] = system: NCI-N87 (Gastric Carcinoma)
Procedure, shortened: as §1

Work on `Cc1c2c(nn1C)CSCc1cc(n(C)n1)CSc1cc(c3ccccc3c1)OCCCc1c(C(=O)O)n(C)c3c-2c(Cl)ccc13` [AZD5991] + C=CCn1c(=O)c2cnc(Nc3ccc(N4CCN(C)CC4)cc3)nc2n1-c1cccc(C(C)(C)O)n1 [AZD1775] (first compound max 1 µM, partner max 1 µM) yielded a Bliss excess [1] of -0.0248, a Bliss excess [2] of 0.0348 and a Bliss excess [3] of 0.0088. For the same compound, the Bliss excess [4] was -0.0839, the Bliss excess [5] was 0.0385 and the Bliss excess (NB7 (Neuroblastoma)) was -0.0084. For the same compound, the Bliss excess (A704 (Kidney Carcinoma)) was -0.0506, the Bliss excess [6] was -0.023 and the Bliss excess [7] was 0.0301. For the same compound, the Bliss excess [8] was -0.0037, the Bliss excess [9] was -0.003 and the Bliss excess [10] was -0.0616. For the same compound, the Bliss excess (EW-13 (Ewing's Sarcoma)) was -0.0441, the Bliss excess [11] was -0.0042 and the Bliss excess [12] was 0.034. It also gave a Bliss excess [13] of -0.0282, a Bliss excess [14] of 0.0108 and a Bliss excess [15] of -0.0123. For the same compound, the Bliss excess (EW-18 (Ewing's Sarcoma)) was -0.0102 and the Bliss excess [16] was -0.0275.
Compound `Cc1c2c(nn1C)CSCc1cc(n(C)n1)CSc1cc(c3ccccc3c1)OCCCc1c(C(=O)O)n(C)c3c-2c(Cl)ccc13` [AZD5991] + CC1(C)CCC(CN2CCN(c3ccc(C(=O)NS(=O)(=O)c4ccc(NCC5CCOCC5)c([N+](=O)[O-])c4)c(Oc4cnc5[nH]ccc5c4)c3)CC2)=C(c2ccc(Cl)cc2)C1 [Venetoclax] (first compound max 1 µM, 7x7, partner max 1 µM) has a Bliss excess [1] of -0.036, a Bliss excess [2] of 0.0183 and a Bliss excess [3] of 0.017. For the same compound, the Bliss excess [4] was -0.0458, the Bliss excess [5] was -0.0346 and the Bliss excess (NB7 (Neuroblastoma)) was -0.0612. It also gave a Bliss excess (A704 (Kidney Carcinoma)) of -0.0306, a Bliss excess [6] of -0.0378 and a Bliss excess [7] of 0.0705. For the same compound, the Bliss excess [8] was -0.0771, the Bliss excess [9] was -0.0072 and the Bliss excess [10] was -0.0505. For the same compound, the Bliss excess (EW-13 (Ewing's Sarcoma)) was 0.0893, the Bliss excess [11] was -0.0575 and the Bliss excess [12] was 0.006. The Bliss excess [13] was 0.0721, the Bliss excess [14] was 0.0031 and the Bliss excess [15] was -0.0278. It also gave a Bliss excess (EW-18 (Ewing's Sarcoma)) of 0.046 and a Bliss excess [16] of -0.0041.
For `Cc1c2c(nn1C)CSCc1cc(n(C)n1)CSc1cc(c3ccccc3c1)OCCCc1c(C(=O)O)n(C)c3c-2c(Cl)ccc13` [AZD5991] + CN(C)CCCOc1ccc(-c2ccc3ncc4c(c3c2)n(C2CCOCC2)c(=O)n4C)cn1 [AZD0156] (first compound max 1 µM, 7x7, partner max 1 µM), the Bliss excess [1] was -0.0443, the Bliss excess [2] was -0.0091 and the Bliss excess [3] was 0.0027. It also gave a Bliss excess [4] of -0.0652, a Bliss excess [5] of -0.0075 and a Bliss excess (NB7 (Neuroblastoma)) of -0.0178. The Bliss excess (A704 (Kidney Carcinoma)) was -0.0475, the Bliss excess [6] was -0.0017 and the Bliss excess [7] was -0.0177. The Bliss excess [8] was 0.0128, the Bliss excess [9] was -0.004 and the Bliss excess [10] was -0.0504. For the same compound, the Bliss excess (EW-13 (Ewing's Sarcoma)) was -0.0024, the Bliss excess [11] was -0.0031 and the Bliss excess [12] was 0.0178. The Bliss excess [13] was 0.0228, the Bliss excess [14] was -0.0007 and the Bliss excess [15] was -0.0237. It also gave a Bliss excess (EW-18 (Ewing's Sarcoma)) of -0.0213 and a Bliss excess [16] of 0.0027.
`Cc1c2c(nn1C)CSCc1cc(n(C)n1)CSc1cc(c3ccccc3c1)OCCCc1c(C(=O)O)n(C)c3c-2c(Cl)ccc13` [AZD5991] + C[C@@H]1COCCN1C2=NC(=NC(=C2)C3(CC3)[S@](=N)(=O)C)C4=C5C=CNC5=NC=C4 [AZD6738] (first compound max 1 µM, 7x7, partner max 10 µM) was tested, and the Bliss excess [1] was -0.033, the Bliss excess [2] was 0.0642 and the Bliss excess [3] was 0.0538. For the same compound, the Bliss excess [4] was -0.0626, the Bliss excess [5] was 0.0105 and the Bliss excess (NB7 (Neuroblastoma)) was 0.028. It also gave a Bliss excess (A704 (Kidney Carcinoma)) of -0.0522, a Bliss excess [6] of 0.0012 and a Bliss excess [7] of 0.0101. The Bliss excess [8] was 0.0151, the Bliss excess [9] was 0.0278 and the Bliss excess [10] was -0.0021. The Bliss excess (EW-13 (Ewing's Sarcoma)) was -0.0056, the Bliss excess [11] was -0.0348 and the Bliss excess [12] was 0.0339. It also gave a Bliss excess [13] of 0.0139, a Bliss excess [14] of -0.0118 and a Bliss excess [15] of 0.0134. The Bliss excess (EW-18 (Ewing's Sarcoma)) was -0.0141 and the Bliss excess [16] was -0.0285.
`Cc1c2c(nn1C)CSCc1cc(n(C)n1)CSc1cc(c3ccccc3c1)OCCCc1c(C(=O)O)n(C)c3c-2c(Cl)ccc13` [AZD5991] + C[C@@H](Nc1cc(F)cc(F)c1)c1cc(C(=O)N(C)C)cc2c(=O)cc(N3CCOCC3)oc12 [AZD8186] (first compound max 1 µM, 7x7, partner max 3 µM) showed a Bliss excess [1] of -0.0303, a Bliss excess [2] of -0.0439 and a Bliss excess [3] of -0.0036. For the same compound, the Bliss excess [4] was -0.0148, the Bliss excess [5] was -0.0114 and the Bliss excess (NB7 (Neuroblastoma)) was 0.0187. It also gave a Bliss excess (A704 (Kidney Carcinoma)) of -0.0291, a Bliss excess [6] of 0.0225 and a Bliss excess [7] of -0.057. For the same compound, the Bliss excess [8] was -0.0111, the Bliss excess [9] was 0.0221 and the Bliss excess [10] was 0.0077. It also gave a Bliss excess (EW-13 (Ewing's Sarcoma)) of -0.0535, a Bliss excess [11] of 0.0319 and a Bliss excess [12] of -0.0067. It also gave a Bliss excess [13] of 0.0429, a Bliss excess [14] of 0.0069 and a Bliss excess [15] of -0.0058. It also gave a Bliss excess (EW-18 (Ewing's Sarcoma)) of 0.0122 and a Bliss excess [16] of -0.0181.
`Cc1c2c(nn1C)CSCc1cc(n(C)n1)CSc1cc(c3ccccc3c1)OCCCc1c(C(=O)O)n(C)c3c-2c(Cl)ccc13` [AZD5991] + Cc1cc2ncnn2cc1Nc1ncc2c(n1)n(C1CCOCC1)c(=O)n2C [AZD7648] (first compound max 1 µM, 7x7, partner max 10 µM) was tested, and the Bliss excess [1] was 0.0523, the Bliss excess [2] was -0.0598 and the Bliss excess [3] was -0.0119. The Bliss excess [4] was -0.0742, the Bliss excess [5] was -0.0391 and the Bliss excess (NB7 (Neuroblastoma)) was -0.0079. For the same compound, the Bliss excess (A704 (Kidney Carcinoma)) was -0.0914, the Bliss excess [6] was -0.05 and the Bliss excess [7] was 0.0017. It also gave a Bliss excess [8] of -0.0095, a Bliss excess [9] of -0.0127 and a Bliss excess [10] of -0.0598. For the same compound, the Bliss excess (EW-13 (Ewing's Sarcoma)) was 0.014, the Bliss excess [11] was -0.0461 and the Bliss excess [12] was -0.0448. It also gave a Bliss excess [13] of -0.0199, a Bliss excess [14] of -0.043 and a Bliss excess [15] of -0.0716. It also gave a Bliss excess (EW-18 (Ewing's Sarcoma)) of -0.0254 and a Bliss excess [16] of -0.0367.
With `Cc1c2c(nn1C)CSCc1cc(n(C)n1)CSc1cc(c3ccccc3c1)OCCCc1c(C(=O)O)n(C)c3c-2c(Cl)ccc13` [AZD5991] + Cn1cnc2c(F)c(Nc3ccc(Br)cc3Cl)c(C(=O)NOCCO)cc21 [Selumetinib] (first compound max 1 µM, 7x7, partner max 3 µM) the Bliss excess [1] was -0.0059, the Bliss excess [2] was -0.0649 and the Bliss excess [3] was 0.0783. The Bliss excess [4] was 0.0034, the Bliss excess [5] was 0.0595 and the Bliss excess (NB7 (Neuroblastoma)) was -0.0259. The Bliss excess (A704 (Kidney Carcinoma)) was -0.106, the Bliss excess [6] was 0.0308 and the Bliss excess [7] was 0.0467. It also gave a Bliss excess [8] of -0.0147, a Bliss excess [9] of -0.0255 and a Bliss excess [10] of -0.0374. It also gave a Bliss excess (EW-13 (Ewing's Sarcoma)) of 0.0215, a Bliss excess [11] of -0.0049 and a Bliss excess [12] of 0.0322. For the same compound, the Bliss excess [13] was 0.0395, the Bliss excess [14] was -0.0588 and the Bliss excess [15] was 0.0245. For the same compound, the Bliss excess (EW-18 (Ewing's Sarcoma)) was 0.002 and the Bliss excess [16] was 0.0633.
